Results as given in US20220105157A1, “Compositions and Methods for Promoting Angiogenesis in the Eye” (The Regents of the University of California, priority 2019, published 2022).
Residues, ends and D or L forms follow the SMILES beside them. *: point of attachment. Cbz = O=C(OCc1ccccc1)*; CH2F = FC*

Tests used:
[1] = tested on: bovine choroidal endothelial (BCE) cells; test: BCE endothelial cell proliferation assay (alamar blue); assay type: cell-based; set-up: key to BCE cell growth normalized to the vehicle control group: ns, not statistically significant; settings: for effect on LIF-induced BCE cell growth: pre-incubation with inhibitor 1 hour, LIF 10 ng/ml, 6 days; for BCE cell growth normalized to the vehicle control group: day 6, n = 3
Experimental: (§1) The bovine endothelial proliferation assays were performed essentially as previously described (63, 64). BCE (1×10^3 cells/well) or BRE (5×10^2 cells/well) cells were seeded in 96-well plates in the culture medium (DMEM-low glucose supplemented with 10% BCS, 2 mM glutamine and antibiotics) plus testing materials with a total volume of 200 μl per well. BAE cells were plated in 96-well plates at a density of 2×10^3 cells in the culture medium (DMEM-low glucose supplemented with 1% BCS and antibiotics) plus testing material with a total volume of 200 μl per well. HRME cells were seeded at a density of 1×10^3 cells/well in gelatin-coated 96-well plates in assay medium (DMEM-low glucose supplemented with 20% FBS and antibiotics) plus testing materials to make a total volume 200 μl per well. For assays involving antibodies or small-molecule inhibitors, inhibitors or vehicle controls were first added and then test materials were added one hour later. After 6 days (unless otherwise specified), cells were incubated with alamar blue for 4 h. Fluorescence was measured at 530 nm excitation wavelength and 590 nm emission wavelength. Each experiment was carried out in duplicate/triplicate and repeated at least three times.

[2] = tested on: retinal vasculature of mouse eyes; test: Intravitreal injection of recombinant proteins in mouse eyes, retinal vessel density; assay type: in vivo; settings: after exposure to 95° C. for 2 hours
Experimental: Male C57BL/6J mice (6-8 week and P5) were anesthetized with ketamine/Xylazine cocktail. The indicated amounts of recombinant LIF (Sigma, CAT #SRP9001) in 1 μl of PBS and PBS vehicle control were injected intravitreally with a 33-gauge Hamilton syringe. Seven (for adult mice) or 3 (for neonatal mice) days after injection, animals were euthanized, eyes were then enucleated and fixed in 4% paraformaldehyde (PFA) for 15 min. Choroid-sclera complexes and retinas were separated and anti-CD31 immunofluorescence (IF) or lectin labeling was performed to evidence the vasculature by whole mount staining of both retina and choroidal tissues or flat-mounts of retina. For CD31 IF, rat anti-mouse antibody (BD Biosciences, CAT #550274) was diluted 1:100 and incubated overnight at 4° C. After 4-hour incubation with the Alexa Fluor-488-conjugated anti-rat antibody (Life Technologies, CAT #A11006), whole mounts were imaged via the 488 nm channel using Keyence Microscope BZ-X710 (Keyence Corporation, Osaka, Japan) or A1R Confocal STORM super-resolution system (Nikon). For lectin staining, Dylight-488-labeled lectin (Vector Laboratories, CAT #DL-1174) was diluted at 1:200 and images were obtained using A1R Confocal STORM super-resolution system (Nikon). For Quantification of vascular density in choroids and retina was carried out by Image J. Student's t test was used for statistical analysis. Each experiment was repeated three times with similar results each time, and each treatment group consists of 4 or 5 individual samples in every experiment. All animal experimental procedures were approved by the Institutional Animal Care and Use Committee (IACUC) of the University of California San Diego and conducted in accordance with the guidelines of the Animal Care Program (ACP).
Optical coherence tomography angiography (OCTA) imaging of the retina of adult mice was performed 7 days after LIF injection, using a 1300 nm optical coherence tomography (OCT) system developed by Dr. R. K. Wang's group at University of Washington Seattle, in agreement with previously described methodology (66). Briefly, the swept laser operated in single longitude mode with a 90 nm bandwidth centered at 1300 nm and 200 kHz A-line rate was used to scan mouse retina and to generate images of vasculature in a field of view of 1.5×1.5 mm^2. 2500 B-frames were captured at 500 cross-sections with five repeated B-frames at each cross-section. To quantify the retinal vascular density, retinal and choroidal layers in 3D structure OCT scans were separated by the hyper-reflecting retinal pigment epithelium (RPE). Then the en face maximum intensity projection was generated. The vessel density was then determined by calculating the percentages of vessel-covered area in total area of view using the ImageJ software.

[3] = tested on: bovine aortic endothelial (BAE) cells; test: BAE endothelial cell proliferation assay (alamar blue); assay type: cell-based; settings: for reversal of LIF-induced growth inhibition in BAE cells: pre-incubation with inhibitor 1 hour, LIF 10 ng/ml, 6 days; for rescue of the cell death phenotype induced by LIF: BAE cells, co-incubation with inhibitor
Experimental: as §1

[4] = tested on: phosphorylation of STAT3, ERK and AKT in BCE cells; test: Western blotting of LIF signaling in BCE cells; assay type: cell-based, bovine; settings: pre-incubation 1 hour (baricitinib 2 μM, cobimetinib 150 nM, BEZ235 5 nM); for effect on AKT phosphorylation: with or without LIF 10 ng/ml 15 minutes
Experimental: (§2) BCE and BAE cells were cultured in growth medium overnight. Growth medium was removed and then cells were washed twice with PBS. Recombinant human LIF was added to cells for 15 minutes, following 3-hour incubation in the following medium: DMEM-low glucose supplemented with 10% BCS, 2 mM glutamine and antibiotics for BCE cells, and DMEM-low glucose supplemented with 1% BCS and antibiotics for BAE cells. […] Cells were then lysed with RIPA lysis buffer (Life Technologies, CAT #89901) plus protease and phosphatase inhibitor cocktail (ThermoFisher Scientific CAT #78440). Protein concentrations in cell lysates were measured with the BCA assay (ThermoFisher Scientific CAT #23227). Equal amount of proteins were subjected to electrophoresis in NuPAGE 4-12% Bis-Tris gels (ThermoFisher Scientific, CAT #NW04125BOX) and then transferred onto PVDF membranes. Membranes were blocked with 5% non-fat milk in TBST at room temperature for 1 hour, incubated with primary antibodies indicated below in TBST containing 0.5% non-fat milk at 4° C. overnight then with secondary HRP-conjugated antibodies (1:2000, GE Healthcare) at room temperature for 1 h. Signals were developed with SuperSignal™ West Pico PLUS Chemiluminescent Substrate (ThermoFisher Scientific). Primary antibodies used: anti-phospho-STAT3 (Cell Signaling, CAT #9131, 1:3000), anti-STAT3 (Cell Signaling, CAT #4904, 1:3000), anti-phospho-ERK (Cell Signaling, CAT #4376, 1:5000), anti-ERK (Cell Signaling, CAT #4695, 1:5000), anti-phospho-AKT Ser473 (Cell Signaling, CAT #4060, 1:2000), anti-AKT (Cell Signaling, CAT #4691, 1:2000) and HRP-conjugated anti-beta-actin (Sigma, CAT #AC-15, 1; 10000).

[5] = tested on: phosphorylation of STAT3, ERK and AKT in BAE cells; test: Western blotting of LIF signaling in BAE cells; assay type: cell-based, bovine; settings: pretreatment 1 hour (baricitinib 2 μM, cobimetinib 150 nM, BEZ235 5 nM), LIF 10 ng/ml 15 minutes
Experimental: as §2

Compound: heat-inactivated LIF: recombinant LIF heat-inactivated by exposure to 95° C. for 2 hours
- ability to promote mitogenesis in vitro ([1]; after exposure to 95° C. for 2 hours): abolished
- ability to promote angiogenesis in vivo [2]: abolished

Compound: CCCNC(=O)[C@H]1O[C@@H]1C(=O)N[C@H](C(=O)N1CCC[C@H]1C(=O)O)[C@@H](C)CC [CA074, CA-074]
- suppression of LIF-induced effects in BAE cells ([3]; even at the highest dose tested, 50 μM): not able to suppress

Compound: O=C(NCc1ccccc1)[C@H](Cc1ccccc1)NC(=O)[C@@H]1O[C@@H]1C(=O)NCCc1ccc(O)cc1 [CAA0225]
- reversal of LIF-induced growth inhibition in BAE cells [3]: repressed LIF-induced growth inhibition in BAE cells although by less extent

Compound: Cn1c(=O)n(-c2ccc(C(C)(C)C#N)cc2)c2c3cc(-c4cnc5ccccc5c4)ccc3ncc21 [BEZ235, reference compound]
- effect on LIF-induced BCE cell growth [1]: no effect
- effect on AKT phosphorylation [4]: only moderate effects
- effect on LIF-induced phosphorylation of AKT [5]: effectively repressed

Compound: COC(=O)C[C@H](NC(=O)[C@@H](NC(=O)c1ccc2ccccc2n1)C(C)C)C(=O)COc1c(F)cccc1F [Q-VD-OPH, Q-VD(OMe)-OPh]
- rescue of the cell death phenotype induced by LIF [3]: not able rescue

Compound: PDGF-AA: recombinant human PDGF-AA
- stimulation of BCE cell growth (mitogenic activity) [1]: fail to stimulate BCE cell growth
- BCE cell growth normalized to the vehicle control group ([1]; 1 ng/ml): ns
- BCE cell growth normalized to the vehicle control group ([1]; 3 ng/ml): ns
- BCE cell growth normalized to the vehicle control group ([1]; 10 ng/ml): ns
- BCE cell growth normalized to the vehicle control group ([1]; 30 ng/ml): ns
- BCE cell growth normalized to the vehicle control group ([1]; 100 ng/ml): ns
- BCE cell growth normalized to the vehicle control group ([1]; 300 ng/ml): ns

Compound: COC(=O)CC[C@H](NC(=O)[C@H](CC(=O)OC)NC(=O)OCc1ccccc1)C(=O)N[C@H](C(=O)N[C@@H](CC(=O)OC)C(=O)CF)C(C)C [Z-DEVD-fmk, Z-DEVD-FMK]
- rescue of the cell death phenotype induced by LIF [3]: not able rescue

Compound: CCCNC(=O)[C@H]1O[C@@H]1C(=O)N[C@H](C(=O)N1CCC[C@H]1C(=O)OC)[C@@H](C)CC [CA074me, CA-074 me]
- reversal of LIF-induced growth inhibition in BAE cells [3]: alleviated LIF-induced growth inhibition

Compound: COC(=O)C[C@H](NC(=O)[C@H](C)NC(=O)[C@@H](NC(=O)OCc1ccccc1)C(C)C)C(=O)CF [Z-VAD-fmk, Z-VAD-FMK] (Cbz-Val-Ala-Asp(OMe)-CH2F)
- rescue of the cell death phenotype induced by LIF [3]: not able rescue

Compound: IL-8: recombinant human IL-8
- stimulation of BCE cell growth (mitogenic activity) [1]: fail to stimulate BCE cell growth
- BCE cell growth normalized to the vehicle control group ([1]; 1 ng/ml): ns
- BCE cell growth normalized to the vehicle control group ([1]; 3 ng/ml): ns
- BCE cell growth normalized to the vehicle control group ([1]; 10 ng/ml): ns
- BCE cell growth normalized to the vehicle control group ([1]; 30 ng/ml): ns
- BCE cell growth normalized to the vehicle control group ([1]; 100 ng/ml): ns
- BCE cell growth normalized to the vehicle control group ([1]; 300 ng/ml): ns

Compound: IGFBP3: recombinant IGFBP3, a secreted protein previously shown to be an angiogenesis inhibitor
- BAE cell growth [3]: had no effects

Compound: O=C(c1ccc(F)c(F)c1Nc1ccc(I)cc1F)N1CC(O)([C@@H]2CCCCN2)C1 [cobimetinib]
- effect on LIF-induced BCE cell growth [1]: minimal effects
- effect on LIF-induced phosphorylation of ERK MAPK ([4]; then LIF 10 ng/ml 15 minutes): blocked
- effect on LIF-induced phosphorylation of STAT3 ([4]; then LIF 10 ng/ml 15 minutes): no effects
- effect on AKT phosphorylation [4]: no effects
- effect on LIF-induced phosphorylation of ERK [5]: effectively repressed

Compound: Cl.Nc1cccc2c(=O)[nH]ccc12 [5-AIQ, 5-AIQ hydrochloride]
- rescue of the cell death phenotype induced by LIF [3]: not able rescue
